Like-named read-outs stand apart in the source and are kept apart here.
How the values were obtained:
[1] = biological target: PBP1b (Pseudomonas aeruginosa, UniProt G3XD31); test: Gel-based Bocillin FL competition PBP binding assay
Method: (§1) Ten milliliters of overnight bacterial culture was inoculated in 1 L of LB medium and grown to an OD600 of 0.7 to 0.9. The cell pellet was washed once with 50 mL of solution containing 100 mM Na-phosphate at pH 7.0 and 100 mM NaCl and resuspended in 10 mL of the same buffer with one tablet of EDTA-free mini-protease inhibitor and 10 mg of lysozyme. Cell suspensions were incubated for 45 min at 37°C, and then 200 μL of DNase I was added along with MgSO4 (to a final concentration of 10 mM), followed by three cycles of freeze-thawing (10 min and 20 min, respectively). Four cycles of sonication at maximum power were performed next, each cycle lasting for 30 s with 1 min on ice between cycles. The cell suspension was centrifuged at 12,000 × g for 10 min at 4°C. The supernatant was collected and centrifuged at 100,000 × g for 45 min at 4°C. The pellet was washed three times with 10 mL of 100 mM Na-phosphate, pH 7.0, by resuspension and subsequent centrifugation at 100,000 × g for 10 min at 4°C. The pellet was finally resuspended in 1.5 mL of 100 mM Na-phosphate, pH 7.0, and passed several times through a Dounce homogenizer (tight pestle). Membrane preparations were aliquoted and kept at −80°C.
(§2) Five microliters of total bacterial membrane preparation was mixed with 5 μL of a test compound at a desired concentration in 100 mM Na-phosphate buffer, pH 7.0. Incubation of bacterial membrane preparations with control beta-lactams was performed for 10 min at 30°C; xeruborbactam was incubated with membrane preparations for 1 h at 30°C. Five microliters of 150 μM Bocillin FL fluorescent probe (Thermo Fisher Scientific) was added, and the reaction mixture was incubated for an additional 10 min at 30°C in the case of beta-lactams or for 20 min on ice (0°C) in the case of xeruborbactam. […] At the end of the incubation step, 15 μL of 2× SDS sample loading buffer was added, and the reaction mixture was incubated for 5 min at 95°C. Twenty-five microliters of the reaction mixture was then loaded on an 8% SDS Tris-glycine gel (Thermo Fisher Scientific). At the end of the run, the gel was briefly rinsed with water and fixed in 10% acetic acid, 40% methanol for 20 min. After an additional wash in water for 30 min, the gel was scanned on a Typhoon Trio+ Imager using a blue laser filter (excitation, 488 nm, and emission, 520 nm). Densitometry of the gel images was performed using ImageQuant software (Molecular Dynamics). IC50 values were calculated with Prism software (GraphPad).

[2] = biological target: T1, PBP2 (Acinetobacter baumannii, UniProt D0C8Z9); test: as above; conditions: A. baumannii ACM1320 membranes; Bocillin FL step 0°C for xeruborbactam, 30°C for beta-lactams; read-out: Relative binding IC50, PBP2
T1 construct: endogenous in cells
T1 sequence (D0C8Z9 1-672): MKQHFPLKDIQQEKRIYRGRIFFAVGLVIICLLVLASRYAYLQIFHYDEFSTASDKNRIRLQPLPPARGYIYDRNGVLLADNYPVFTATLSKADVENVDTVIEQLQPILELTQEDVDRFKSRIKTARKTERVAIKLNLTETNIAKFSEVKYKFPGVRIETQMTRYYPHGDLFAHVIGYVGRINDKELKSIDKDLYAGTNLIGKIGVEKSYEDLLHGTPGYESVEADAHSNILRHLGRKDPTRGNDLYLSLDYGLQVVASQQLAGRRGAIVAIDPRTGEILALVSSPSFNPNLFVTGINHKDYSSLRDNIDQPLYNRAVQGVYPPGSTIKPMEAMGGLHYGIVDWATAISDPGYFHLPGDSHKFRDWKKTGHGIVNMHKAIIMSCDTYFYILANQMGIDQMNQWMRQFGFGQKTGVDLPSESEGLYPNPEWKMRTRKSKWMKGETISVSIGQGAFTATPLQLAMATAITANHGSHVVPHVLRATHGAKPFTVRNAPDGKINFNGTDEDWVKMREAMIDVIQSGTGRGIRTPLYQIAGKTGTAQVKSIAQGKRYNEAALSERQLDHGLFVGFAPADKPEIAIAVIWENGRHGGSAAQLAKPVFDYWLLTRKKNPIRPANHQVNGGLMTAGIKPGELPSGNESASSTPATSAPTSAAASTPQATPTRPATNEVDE
Method: as §1, §2

Sequence of PBP1b (G3XD31 entry or part of it): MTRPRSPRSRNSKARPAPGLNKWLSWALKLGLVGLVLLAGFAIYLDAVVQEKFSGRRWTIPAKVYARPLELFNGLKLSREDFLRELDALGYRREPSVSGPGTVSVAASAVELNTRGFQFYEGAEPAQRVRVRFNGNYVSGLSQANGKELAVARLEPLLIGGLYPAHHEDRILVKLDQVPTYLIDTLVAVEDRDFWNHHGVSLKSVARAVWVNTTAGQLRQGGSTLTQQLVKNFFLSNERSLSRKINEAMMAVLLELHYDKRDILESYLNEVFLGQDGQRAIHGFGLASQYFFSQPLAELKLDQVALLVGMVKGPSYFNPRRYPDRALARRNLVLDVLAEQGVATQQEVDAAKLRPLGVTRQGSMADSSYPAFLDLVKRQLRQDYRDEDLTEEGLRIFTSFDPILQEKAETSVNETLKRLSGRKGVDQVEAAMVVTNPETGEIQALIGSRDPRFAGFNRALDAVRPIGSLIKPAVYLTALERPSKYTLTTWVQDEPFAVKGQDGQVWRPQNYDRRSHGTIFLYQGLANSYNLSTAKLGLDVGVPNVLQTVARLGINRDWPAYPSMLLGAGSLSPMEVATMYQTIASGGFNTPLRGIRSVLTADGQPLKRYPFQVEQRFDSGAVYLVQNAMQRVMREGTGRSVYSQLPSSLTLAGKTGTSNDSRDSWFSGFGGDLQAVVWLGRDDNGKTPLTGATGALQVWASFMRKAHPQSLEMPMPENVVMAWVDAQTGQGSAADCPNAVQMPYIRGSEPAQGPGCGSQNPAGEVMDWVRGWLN

| Structure (SMILES) | IC50 ([1]; read-out: Relative binding IC50, PBP1b; P. aeruginosa PAM3034 membranes; Bocillin FL step 0°C for xeruborbactam, 30°C for beta-lactams) [nM] | IC50 [2] [nM] | IC50 ([1]; P. aeruginosa PAM3034 membranes; Bocillin FL step 0°C for xeruborbactam, 30°C for beta-lactams; listed as xeruborbactam; read-out: Relative binding IC50, PBP1b) [nM] | IC50 ([1]; P. aeruginosa PAM3034 membranes; Bocillin FL step 0°C for xeruborbactam, 30°C for beta-lactams; read-out: Relative binding IC50, PBP1b) [nM] |
| --- | --- | --- | --- | --- |
| C[C@@H](O)[C@H]1C(=O)N2C(C(=O)O)=C(S[C@@H]3CN[C@H](C(=O)N(C)C)C3)[C@H](C)[C@H]12 [Meropenem] | 230 | 11 |  |  |
| O=C(O)c1c(F)ccc2c1OB(O)[C@@H]1C[C@H]21 [Xeruborbactam] |  | 23000 ± 2000 | 7100 ± 800 | 1900 ± 200 |

Source: article PMC9578396, “Intrinsic Antibacterial Activity of Xeruborbactam In Vitro: Assessing Spectrum and Mode of Action” (Antimicrobial Agents and Chemotherapy, 2022)
